Key:
U266 = test: MTT viability assay, U266; type: cell-based; conditions: Homo sapiens, U-266, Multiple Myeloma, read-out: IC50 Avg ± s.d. (n = 3), U266
Description: Cell Lines: PC-9 cell line used was obtained from Sigma Aldrich and grown in RPMI 1640 medium with 10% fetal bovine serum and 1% penicillin/streptomycin. HCC4006, U266, MM1.s, and Beas-2B cell lines were obtained from ATCC and cultured in either RPMI 1640 or DMEM with 10% fetal bovine serum and 1% penicillin/streptomycin. All cell lines were also checked for mycoplasma every six months and subjected to short tandem repeat (STR) analysis for cell line validation. CRISPR Cas9: CRISPR Guide RNA 2 targeting ERO1α and CRISPR Guide RNA 4 were purchased from Genscript in the pLentiCRISPR V2 plasmid containing puromycin/ampicillin selection marker. Lentivirus was made from HEK 293T cells by co-transfection with GuideRNA of interest, pVSVG, and pPAX2 plasmids. […] Plate was then read on the BioTek Cytation 5 at 530/590 nm. […] Plate was then read at 570 nm. Treated wells were all compared to DMSO control wells to calculate percent growth inhibition and the IC50 was calculated using GraphPad (log(inhibitor) vs growth inhibition). […] Images were then quantified using ImageJ. […] Cells were aliquoted at 1 million cells per PCR tube in PBS and heated in Bio-Rad T100 thermal cycler at indicated temperatures (RT, 46° C., 48° C., 50° C., 52° C., 54° C., 56°, 58° C., and 60° C.) for 3 minutes and aggregation temperature was determined by western blot analysis. […]

purified human ERO1α = molecular target: T1, purified human ERO1α (Homo sapiens, UniProt Q96HE7, C104A/C131A/C166A); test: Recombinant ERO1α enzyme assay (Amplex Red); type: biochemical; conditions: ratio of enzyme IC50 values
T1 construct: made in house
T1 sequence (Q96HE7 22-468 C104A/C131A/C166A): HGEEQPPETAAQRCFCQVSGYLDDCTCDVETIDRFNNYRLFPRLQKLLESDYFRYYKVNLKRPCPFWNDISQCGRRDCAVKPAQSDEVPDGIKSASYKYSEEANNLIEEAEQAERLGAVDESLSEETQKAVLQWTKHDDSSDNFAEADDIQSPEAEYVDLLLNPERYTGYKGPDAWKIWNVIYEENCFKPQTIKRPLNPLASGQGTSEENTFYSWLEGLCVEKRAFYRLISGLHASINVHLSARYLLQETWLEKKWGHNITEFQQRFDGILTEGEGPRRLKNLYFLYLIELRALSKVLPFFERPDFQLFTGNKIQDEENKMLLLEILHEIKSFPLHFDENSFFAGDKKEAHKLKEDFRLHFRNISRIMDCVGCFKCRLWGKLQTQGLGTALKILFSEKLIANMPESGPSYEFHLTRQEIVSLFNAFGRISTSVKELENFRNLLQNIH
Method: Based on previous work which established an aurone chemical class of compounds as FAD containing enzyme inhibitors^37, we evaluated sulfuretin analogs for ERO1α enzyme inhibition.
Quantification of enzymatic activity of ERO1α was performed using the Amplex Red as previously described^6.

What does the source list for CN(C)c1ccc(/C=C2\Oc3cc(O)ccc3C2=O)cc1 [Compound T151742]?
IC50 (U266): 8.93 ± 1.13 µM; fold more potent compared to EN-460 (purified human ERO1α): approximately 2 fold

Reference: patent US20250064773A1, “TARGETING ERO1 ALPHA WITH AURONE DERIVATIVES” (West Virginia University Board of Governors on behalf of …, priority 2021, published 2025)
